Biological target: HDAC2 (Homo sapiens, UniProt Q92769)
Assay: Inhibition of purified HDAC2, Boc-Lys(Ac)-AMC substrate
Format: biochemical
Parameters: purchased Cayman Chemical
Conditions: 1 h 37 °C

Sequence of HDAC2 (Q92769 whole entry): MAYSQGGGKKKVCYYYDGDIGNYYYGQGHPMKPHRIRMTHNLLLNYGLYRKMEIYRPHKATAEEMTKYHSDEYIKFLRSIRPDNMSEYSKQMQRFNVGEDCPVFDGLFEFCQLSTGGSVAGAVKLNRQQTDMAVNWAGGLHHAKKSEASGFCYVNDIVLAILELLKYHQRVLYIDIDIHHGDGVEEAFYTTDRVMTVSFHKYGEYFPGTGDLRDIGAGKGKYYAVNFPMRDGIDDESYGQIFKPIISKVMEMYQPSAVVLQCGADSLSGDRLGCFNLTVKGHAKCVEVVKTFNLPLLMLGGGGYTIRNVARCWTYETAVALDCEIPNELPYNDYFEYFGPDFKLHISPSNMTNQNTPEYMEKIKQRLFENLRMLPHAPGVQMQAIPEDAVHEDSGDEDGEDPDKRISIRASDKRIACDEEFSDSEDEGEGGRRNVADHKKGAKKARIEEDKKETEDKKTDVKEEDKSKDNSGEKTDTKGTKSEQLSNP

CCC(CC)(c1ccc(OCCCCCC(=O)NO)cc1)c1ccc(OCC(O)C(C)(C)C)c(C)n1 (stereo not shown) [AM-193]
IC50: 4.18 µM
